Data: patent US20100311726A1, “REDUCTION OF BETA-AMYLOID LEVELS BY TREATMENT WITH THE SMALL MOLECULE DIFFERENTIATION-INDUCING FACTOR” (priority 2007, published 2010)

Key:
[1] = system: secreted APP and Aβ; assay: Secreted APP and total Aβ in conditioned media by western blot; type: cell-based, human; details: CHO-7W, 30 μM, antibody 6E10
Procedure: (§1) The levels of secreted Aβ from CHO-7W cells stably overexpressing APP^751 and CHO-CAB cells that overexpress APP^751 and human BACE1 was quantified by ELISA and viewed by western blot using the monoclonal anti-APP antibody (6E10) that recognizes residues 1-17 of Aβ. Cells (5×10^5) were deposited into 6-well tissue culture dishes in triplicate and allowed to settle and grow for 24 hours. At this time, the media was aspirated and the cells were washed 2× in warm PBS. Fresh media (2 mL) and media supplemented with vehicle or DIF-1 was added to each well. […] Since DIF-1 exerts a cytostatic effect, the cell number was counted for all treatments upon removal of the conditioned media and used to normalize the levels of Aβ. […] The concentration of Aβ40 and Aβ42 was subsequently detected in triplicate using the β-Amyloid 1-40 or 1-42 Colorimetric ELISA kit (Biosource International, Inc.) according to the manufacturer's instructions.
(§2) We then looked at what effect this had on the levels of secreted soluble APP and Aβ production. […] The conditioned media was analyzed using anti-APP antibody 6E10 in order to detect total βP levels and sαAPP levels since it recognizes the amino acids 1-17 of Aβ and thus cannot detect sβAPP. […] The blots were analyzed using a phosphorimager.

[2] = system: notch intracellular domain (NICD); assay: Notch intracellular domain (NICD) level; type: cell-based
[3] = system: CHO cells; assay: Cell proliferation assay (haemocytometer counts); type: cell-based, Chinese Hamster
Excerpt: (§3) For proliferation assays, 1×10^4 cells were deposited into 24-well plates and treated with vehicle (ethanol or DMSO) or with various amounts of DIF-1 or DIF-3 for a period of 4 days. Cells were harvested after each day by trypsin/EDTA treatment, stained with an equal volume of 0.05% Trypan blue and enumerated in triplicate twice using a haemocytometer. Dead cells are stained blue, but live cells with intact cell membranes are not coloured. Data represents the mean cell number±the standard deviation for at least 3 separate experiments.
We therefore assessed the dose-dependent anti-proliferative effect of DIF-1 on normal (non-transformed) CHO cells (FIG. 1A). Briefly, CHO cells were seeded on a 6-well plate (10,000 cells/well) and were incubated with 25 μM DIF-1. Cells were harvested by the trypsin/EDTA treatment at the times indicated and counted with a haemocytometer. […] Therefore, for this study we only analyzed the effect of DIF-1 between 18 and 20 hours.

[4] = system: Aβ40; assay: Secreted Aβ40 sandwich ELISA of conditioned media; type: cell-based, human
Procedure: as §1
as §2, with “phosphorimager. […]” for “phosphorimager.”

[5] = system: CHO cells; assay: Cell viability (trypan blue exclusion) and apoptosis (caspase-3); type: cell-based
Excerpt: as §3
Cells were harvested by the trypsin/EDTA treatment at the times indicated and counted with a haemocytometer.

[6] = system: APP phosphorylation on residue T668; assay: APP T668 phosphorylation by western blot; type: cell-based, human; details: CHO-7W and CHO-CAB; DAPT alone, or DAPT with DIF-1 (30 μM)
Procedure: Next, whether or not DIF-1 treatment affected the degree of T668 phosphorylation was examined by western blot (FIG. 11). Briefly, effects of DIF-1 on APP T668 phosphorylation were compared between vehicle-treated control and 250 nM of DAPT identically in each cell line. Western analysis of 15 μg of total protein was probed overnight at 4° C. with anti-APP Cterminal antibody (C66-676-695) (1:5000) and then detected on film using ECL and HRP-conjugated secondary antibodies (1:5000). […] This band has also been detected in other CHO lines where APP expression is high (˜3 fold) and by different C-terminal APP antibodies (Ab8717-676-695; except 6E10 which recognizes the N-terminal residues 1-17 of the Aβ sequence. For FIG. 11A, cells were treated with DAPT, and DAPT+DIF then were probed with anti-APP antibody (C66). For FIG. 11B, CHO-7W cells were treated with DAPT, and DAPT+DIF, and then probed with polyclonal anti-P668 APP antibody (1:1000) overnight at 4° C. in 5% BSA. After washing, cells were probed with a rabbit HRP-conjugated secondary antibody (1:5000) in BSA for 1 hour at room temperature and signals were detected on film using ECL. FIG. 11C represents CHO-CAB cells and FIG. 11D represents H4 cells expressing APP^SW.

Q: How did the “level of total Aβ in conditioned media by western blot” value [1] turn out when `CCCCCC(=O)c1c(O)c(Cl)c(OC)c(Cl)c1O` [DIF-1, 1-[3,5-dichloro-2,6-dihydroxy-4-methoxyphenyl]-1-hexanone] was run?
A: reduced the level of total Aβ

Q: And the “level of total secreted APP in conditioned media” value [1]?
A: reduced the level of total secreted APP

Q: What about the “effect on notch intracellular domain (NICD)” value [2] of the same compound?
A: no effect

Q: And the inhibition of growth ([3]; 25 μM, 24 hours)?
A: minor, yet insignificant inhibition of growth

Q: And the “decrease in proliferation compared to control and vehicle treated cells” value ([3]; after 72 hours, all cell lines tested (e.g. CHO, N2a and SH-SY5Y))?
A: 70-75%

Q: What about the “reversibility of antiproliferative effect” value ([3]; washing treated cells with PBS and fresh growth media) of the same compound?
A: readily reversed

Q: And the “reduction of secreted Aβ40” value ([4]; CHO-7W, 30 μM overnight)?
A: about 48.5±0.91%

Q: And the “reduction of secreted levels of Aβ40” value ([4]; conditioned media from either CHO-7W or CHO-CAB cells)?
A: 44.2±3.4%

Q: And the “cell adhesion, cell shape, apoptosis (caspase-3 activation)” value [5]?
A: did not effect cell adhesion, cell shape or induce apoptosis

Q: And the “effect on cell viability (trypan blue exclusion)” value ([5]; any of the cell lines tested)?
A: no observable effect on cell viability

Q: And the “amount of T668 phosphorylated APP CTFs” value [6]?
A: large reduction in the amount of T668 phosphorylated APP CTFs
